From PMC8637766, “A mixed chirality α-helix in a stapled bicyclic and a linear antimicrobial peptide revealed by X-ray crystallography” (RSC Chemical Biology, 2021)
Values after ≈ are worked out from the molar mass of the structure shown. Peptide text beside a SMILES is read from it.

Legend:
[1] = test system: B. subtilis BR151; format: cell-based, Bacillus subtilis; conditions: BR151, 20 h
Description: (§1) Bicyclic and linear peptides cytotoxicity was assayed against P. aeruginosa PAO1, P. aeruginosa ZEM-1A, P. aeruginosa ZEM9A, K. pneumoniae Oxa-48, E. coli W3110, A. baumannii BAL225, S. aureus Newman, S. aureus COL (clinical isolate of MRSA) , B. Subtilis BR151.
(§2) To determine the Minimal Inhibitory Concentration (MIC), Broth Microdilution method was used . 2 A colony of bacteria from glycerol stock was grown in LB medium overnight at 37 °C and 180 rpm shaking. The compounds were prepared as stock solutions of 8 mg/mL in sterilized milliQ deionized water, added to the first well of 96 -well sterile, polypropylene round bottom microtiter plates (TPP, untreated) and diluted serially by ½. The concentration of the bacteria was quantified by measuring absorbance at 600 nm and diluted to an OD 600 of 0.022 in MH medium. The sample solutions (150 µL) were mixed with 4 µL diluted bacterial suspension with a final inoculation of about 5×10^5 CFU.
For each test, two columns of the plate were kept for sterility control (MH medium only), growth control (MH medium with bacterial inoculum, no compound). The positive control, Polymyxin B (starting with a concentration of 64 µg/mL) in MH medium with bacterial inoculums, was introduced in the two first lines of the plate. […]
conditions. 15 μL of 3-(4,5-dimethylthiazol-2-yl)-2,5-diphenyltetrazolium bromide (MTT)3 (1 mg/mL in sterilized milliQ deionized water) were added to each well and the plates were incubated for 20-30 minutes at room temperature. The minimal inhibitory concentration (MIC) was defined as the lowest concentration of the dendrimer that inhibits the visible growth of the tested bacteria (yellow) with the unaided eye.

[2] = test system: P. aeruginosa PAO1; format: cell-based, Pseudomonas aeruginosa
Description: as §1, §2
For each test, two columns of the plate were kept for sterility control (MH medium only), growth control (MH medium with bacterial inoculum, no compound). The positive control, Polymyxin B (starting with a concentration of 64 µg/mL) in MH medium with bacterial inoculums, was introduced in the two first lines of the plate. The plates were incubated at 37 °C for ~18 hours under static conditions. 15 μL of 3-(4,5-dimethylthiazol-2-yl)-2,5-diphenyltetrazolium bromide (MTT)3 (1 mg/mL in sterilized milliQ deionized water) were added to each well and the plates were incubated for 20-30 minutes at room temperature. The minimal inhibitory concentration (MIC) was defined as the lowest concentration of the dendrimer that inhibits the visible growth of the tested bacteria (yellow) with the unaided eye.

[3] = Lipid vesicle leakage assay, 5(6)-carboxyfluorescein release; conditions: for EYPC vesicle leakage / EYPG vesicle leakage: 10 μg mL^−1 compound, leakage at 250 s, 10 mM TRIS, 107 mM NaCl, pH 7.4, 25 °C, carboxyfluorescein fluorescence, Triton X-100 = full release
Description: 4 Lipid Vesicle Leakage assays
5(6)-carboxyfluorescein (CF) was purchased from Sigma. Egg Yolk Phosphatidylcholine (EYPC),
Egg Yolk Phosphatidylglycerol (EYPG) and a Mini-Extruder were purchased from Avanti Polar
Lipids. Egg PC or Egg PG thin lipid layers were prepared by evaporating a solution of 100 mg EYPC
or EYPG in 4 mL MeOH/CHCl3 (1:1) on a rotary evaporator at room temperature and then dried in
vacuo overnight. The resulting film was then hydrated with 4 mL CF buffer (50 mM CF, 10 mM
TRIS, 107 mM NaCl, pH 7.4) for 30 min, subjected to freeze-thaw cycles (7×) and extrusion (15×)
through a polycarbonate membrane (pore size 100 nm). Extra vesicular components were removed
by gel filtration (Sephadex G-50) with 10 mM TRIS, 107 mM NaCl, pH 7.4 buffer. Final conditions:
~ 2.5 mM PC or PG; inside: 50 mM CF, 10 mM TRIS, 10 mM NaCl, pH 7.4 buffer; outside: 10 mM
TRIS, 107 mM NaCl, pH 7.4. PC or PG stock solutions (37.5 µL) were diluted to 3000 µL with a
buffer (10 mM TRIS, 107 mM NaCl, pH 7.4) in a thermostated fluorescence cuvette (25 °C) and
gently stirred (final lipid concentration ~31 µM). CF efflux was monitored at λem 517 nm (λex 492
nm) as a function of time after addition of the desired volume of peptide (1 or 20 mg/mL stock in mQ
water) at t = 45 s. The following final concentrations of peptide were monitored: 5, 10, 15, 20, 25 and
200 µg/mL. Finally, 30 µL of 1.2% Triton X -100 was added to the cuvette (0.012% final
concentration) at t = 285 s to reach the maximum intensity. Fluorescence intensities were then
Figure S1: Vesicle leakage experiments using 5(6)-carboxyfluorescein induced by peptides. EYPG and EYPC vesicles
were suspended in buffer (10 mM TRIS, 107 mM NaCl, pH 7.4) and the indicated concentration of the compound was
added after 45 sec. After 285 seconds 30 μL Triton X-100 1.2% was added for full release of fluorescein. […]

Compound	MIC BR 151 [1]	MIC PAO1 [2]	also measured
Cc1c2cc3cc1CSC[C@H](NC(=O)[C@H](CCCCN)NC(=O)[C@H](CC(C)C)NC(=O)[C@H](CC(C)C)NC(=O)[C@H](CCCCN)NC(=O)[C@H](CCCCN)NC3=O)C(=O)N[C@@H](CC(C)C)C(=O)N[C@@H](CCCCN)C(=O)N[C@H](C(=O)N[C@@H](CC(C)C)C(N)=O)CSC2 [bp3] (HELM PEPTIDE1{K.K.L.L.K.C.L.K.C.L.[am]}|CHEM1{[Cc1c(C[*:2])cc(C(=O)[*:1])cc1C[*:3]]}$PEPTIDE1,CHEM1,1:R1-1:R1|PEPTIDE1,CHEM1,6:R3-1:R2|PEPTIDE1,CHEM1,9:R3-1:R3$$$V2.0)	4 µg/mL (≈ 3.01 µM)	>64 µg/mL	
Cc1c2cc3cc1CSC[C@H](NC(=O)[C@H](CCCCN)NC(=O)[C@H](CCCCN)NC(=O)[C@H](CC(C)C)NC(=O)[C@H](CC(C)C)NC(=O)[C@H](CCCCN)NC3=O)C(=O)N[C@@H](CC(C)C)C(=O)N[C@@H](CCCCN)C(=O)N[C@H](C(=O)N[C@@H](CC(C)C)C(N)=O)CSC2 [bp59] (HELM PEPTIDE1{K.L.L.K.K.C.L.K.C.L.[am]}|CHEM1{[Cc1c(C[*:2])cc(C(=O)[*:1])cc1C[*:3]]}$PEPTIDE1,CHEM1,1:R1-1:R1|PEPTIDE1,CHEM1,6:R3-1:R2|PEPTIDE1,CHEM1,9:R3-1:R3$$$V2.0)	4 µg/mL (≈ 3.01 µM)		
Cc1c2cc3cc1CSC[C@H](NC(=O)[C@H](CC(C)C)NC(=O)[C@H](CCCCN)NC(=O)[C@H](CC(C)C)NC(=O)[C@H](CC(C)C)NC(=O)[C@H](CCCCN)NC3=O)C(=O)N[C@@H](CCCCN)C(=O)N[C@@H](CCCCN)C(=O)N[C@H](C(=O)N[C@@H](CC(C)C)C(N)=O)CSC2 [bp60] (HELM PEPTIDE1{K.L.L.K.L.C.K.K.C.L.[am]}|CHEM1{[Cc1c(C[*:2])cc(C(=O)[*:1])cc1C[*:3]]}$PEPTIDE1,CHEM1,1:R1-1:R1|PEPTIDE1,CHEM1,6:R3-1:R2|PEPTIDE1,CHEM1,9:R3-1:R3$$$V2.0)	> 64 µg/mL		
Cc1c2cc3cc1CSC[C@H](NC(=O)[C@H](CC(C)C)NC(=O)[C@H](CCCCN)NC(=O)[C@H](CCCCN)NC3=O)C(=O)N[C@@H](CCCCN)C(=O)N[C@@H](CC(C)C)C(=O)N[C@H](C(=O)N[C@@H](CCCCN)C(=O)N[C@@H](CC(C)C)C(N)=O)CSC2 [bp61] (HELM PEPTIDE1{K.K.L.C.K.L.C.K.L.[am]}|CHEM1{[Cc1c(C[*:2])cc(C(=O)[*:1])cc1C[*:3]]}$PEPTIDE1,CHEM1,1:R1-1:R1|PEPTIDE1,CHEM1,4:R3-1:R2|PEPTIDE1,CHEM1,7:R3-1:R3$$$V2.0)	> 64 µg/mL		
Cc1c2cc3cc1CSC[C@H](NC(=O)[C@H](CC(C)C)NC(=O)[C@H](CC(C)C)NC(=O)[C@H](CC(C)C)NC(=O)[C@H](CCCCN)NC(=O)[C@H](CCCCN)NC3=O)C(=O)N[C@@H](CCCCN)C(=O)N[C@@H](CC(C)C)C(=O)N[C@H](C(=O)N[C@@H](CCCCN)C(N)=O)CSC2 [bp62] (HELM PEPTIDE1{K.K.L.L.L.C.K.L.C.K.[am]}|CHEM1{[Cc1c(C[*:2])cc(C(=O)[*:1])cc1C[*:3]]}$PEPTIDE1,CHEM1,1:R1-1:R1|PEPTIDE1,CHEM1,6:R3-1:R2|PEPTIDE1,CHEM1,9:R3-1:R3$$$V2.0)	32 µg/mL (≈ 24 µM)		

The next lines start with results.

MIC BR 151 [1]	MIC PAO1 [2]	Compound	also measured
4 µg/mL (≈ 3.01 µM)		Cc1c2cc3cc1CSC[C@H](NC(=O)[C@H](CC(C)C)NC(=O)[C@H](CCCCN)NC(=O)[C@H](CCCCN)NC3=O)C(=O)N[C@@H](CCCCN)C(=O)N[C@@H](CC(C)C)C(=O)N[C@@H](CC(C)C)C(=O)N[C@@H](CCCCN)C(=O)N[C@H](C(=O)N[C@@H](CC(C)C)C(N)=O)CSC2 [bp63] (HELM PEPTIDE1{K.K.L.C.K.L.L.K.C.L.[am]}|CHEM1{[Cc1c(C[*:2])cc(C(=O)[*:1])cc1C[*:3]]}$PEPTIDE1,CHEM1,1:R1-1:R1|PEPTIDE1,CHEM1,4:R3-1:R2|PEPTIDE1,CHEM1,9:R3-1:R3$$$V2.0)	
16 µg/mL (≈ 12 µM)		Cc1c2cc3cc1CSC[C@H](NC(=O)[C@H](CCCCN)NC(=O)[C@H](CC(C)C)NC(=O)[C@H](CC(C)C)NC(=O)[C@H](CCCCN)NC(=O)[C@H](CCCCN)NC3=O)C(=O)N[C@@H](CCCCN)C(=O)N[C@@H](CC(C)C)C(=O)N[C@H](C(=O)N[C@@H](CC(C)C)C(N)=O)CSC2 [bp64] (HELM PEPTIDE1{K.K.L.L.K.C.K.L.C.L.[am]}|CHEM1{[Cc1c(C[*:2])cc(C(=O)[*:1])cc1C[*:3]]}$PEPTIDE1,CHEM1,1:R1-1:R1|PEPTIDE1,CHEM1,6:R3-1:R2|PEPTIDE1,CHEM1,9:R3-1:R3$$$V2.0)	
> 64 µg/mL		Cc1c2cc3cc1CSC[C@H](NC(=O)[C@H](CC(C)C)NC(=O)[C@H](CCCCN)NC(=O)[C@H](CCCCN)NC3=O)C(=O)N[C@@H](CCCCN)C(=O)N[C@@H](CC(C)C)C(=O)N[C@@H](CC(C)C)C(=O)N[C@@H](CCCCN)C(=O)N[C@H](C(N)=O)CSC2 [bp66] (HELM PEPTIDE1{K.K.L.C.K.L.L.K.C.[am]}|CHEM1{[Cc1c(C[*:2])cc(C(=O)[*:1])cc1C[*:3]]}$PEPTIDE1,CHEM1,1:R1-1:R1|PEPTIDE1,CHEM1,4:R3-1:R2|PEPTIDE1,CHEM1,9:R3-1:R3$$$V2.0)	
	32 µg/mL (≈ 22.2 µM)	Cc1c2cc3cc1CSC[C@H](C(=O)N[C@@H](CC(C)C)C(=O)N[C@H](CC(C)C)C(N)=O)NC(=O)[C@H](CCCCN)NC(=O)[C@@H](CC(C)C)NC(=O)[C@H](CSC2)NC(=O)[C@@H](CCCCN)NC(=O)[C@H](CC(C)C)NC(=O)[C@@H](CC(C)C)NC(=O)[C@H](CCCCN)NC(=O)[C@@H](CCCCN)NC3=O [bp67] (HELM PEPTIDE1{[dK].K.[dL].L.[dK].C.[dL].K.[dC].L.[dL].[am]}|CHEM1{[Cc1c(C[*:2])cc(C(=O)[*:1])cc1C[*:3]]}$PEPTIDE1,CHEM1,1:R1-1:R1|PEPTIDE1,CHEM1,6:R3-1:R2|PEPTIDE1,CHEM1,9:R3-1:R3$$$V2.0)	EYPC vesicle leakage [3]: 6%; EYPG vesicle leakage [3]: 48%; Leakage activity on EYPC vesicles, in words ([3]; zwitterionic EYPC vesicles mimicking eukaryotic membranes): very low leakage activity
	16 µg/mL (≈ 11.1 µM)	Cc1c2cc3cc1CSC[C@@H](NC(=O)[C@H](CCCCN)NC(=O)[C@H](CC(C)C)NC(=O)[C@H](CC(C)C)NC(=O)[C@H](CCCCN)NC(=O)[C@H](CCCCN)NC3=O)C(=O)N[C@@H](CC(C)C)C(=O)N[C@@H](CCCCN)C(=O)N[C@@H](C(=O)N[C@@H](CC(C)C)C(=O)N[C@@H](CC(C)C)C(N)=O)CSC2 [bp68] (HELM PEPTIDE1{K.K.L.L.K.[dC].L.K.[dC].L.L.[am]}|CHEM1{[Cc1c(C[*:2])cc(C(=O)[*:1])cc1C[*:3]]}$PEPTIDE1,CHEM1,1:R1-1:R1|PEPTIDE1,CHEM1,6:R3-1:R2|PEPTIDE1,CHEM1,9:R3-1:R3$$$V2.0)	EYPC vesicle leakage [3]: 18%; EYPG vesicle leakage [3]: 44%
